Each structure is given as a SMILES string.

This experiment has as its target T1, human FXR (Homo sapiens, UniProt Q96RI1).
T1 construct: expressed in transfected cells; host or cells: HEK293 cells stably carrying a 5xGal4 response element-luciferase reporter, transiently transfected with pcDNA3.1-Gal4-FXR
T1 sequence (Q96RI1 262-486 limits assumed): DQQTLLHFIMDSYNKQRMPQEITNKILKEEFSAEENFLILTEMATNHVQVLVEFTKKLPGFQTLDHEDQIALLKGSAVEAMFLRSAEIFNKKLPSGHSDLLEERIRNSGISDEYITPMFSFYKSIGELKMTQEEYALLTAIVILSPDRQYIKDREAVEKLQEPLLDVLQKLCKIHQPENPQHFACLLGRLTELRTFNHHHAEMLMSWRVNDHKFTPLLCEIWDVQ
As to the kind of experiment: transient human FXR/Gal4-luciferase reporter assay. The class given is cell-based. The conditions noted are these: Gal4-hFXR fusion construct, luciferase reporter in HEK293 cells; overnight incubation; response as percentage of 8 μM GW-4064 control. The method, boiled down: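 HEK293 cells stably carrying a 5×Gal4-response-element firefly luciferase reporter were transiently transfected with a Gal4 DBD-human FXR LBD fusion, then treated overnight with compounds at 37 °C. Steady-Glo luminescence, minus DMSO background, was expressed as percent of the response to 8 μM GW-4064.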
In general terms: A reporter such as luciferase makes a cellular process visible.
A word on the EC50: it is the midpoint of the concentration-response curve. Higher therefore signals a need for much substance. `Cn1nc(C2CC2)cc1C12CCC(CN(c3cccc(S(C)(=O)=O)c3)C(=O)[C@H]3C[C@](O)(C(F)(F)F)C3)(CC1)CC2` [Example 76, (1S,3S)—N-((4-(3-cyclopropyl-1-methyl-1H-pyrazol-5-yl)bicyclo[2.2.2]octan-1-yl)methyl)-3-hydroxy-N-(3-(methylsulfonyl)phenyl)-3-(trifluoromethyl)cyclobutane-1-carboxamide] yielded an EC50 of 4 µM.

`N#Cc1cccc(N(CC23CCC(c4noc(C(F)(F)F)n4)(CC2)CC3)C(=O)C2CCOCC2)c1` [Example 116, N-(3-cyanophenyl)-N-((4-(5-(trifluoromethyl)-1,2,4-oxadiazol-3-yl)bicyclo[2.2.2]octan-1-yl)methyl)tetrahydro-2H-pyran-4-carboxamide] registered an EC50 of 0.518 µM.

Regarding `CC(F)(F)c1nc(C23CCC(CN(C(=O)C45CC(F)(C4)C5)c4cccc(OC(F)F)c4)(CC2)CC3)no1` [Example 12, N-((4-(5-(1,1-difluoroethyl)-1,2,4-oxadiazol-3-yl)bicyclo[2.2.2]octan-1-yl)methyl)-N-(3-(difluoromethoxy)phenyl)-3-fluorobicyclo[1.1.1]pentane-1-carboxamide], the EC50 is 0.073 µM.

In turn, `CC(C)(C)c1nc(C23CCC(CN(C(=O)C45CC(F)(C4)C5)c4cccc(Nc5ccc(F)cc5)c4)(CC2)CC3)no1` [Example 88, N-((4-(5-(tert-butyl)-1,2,4-oxadiazol-3-yl)bicyclo[2.2.2]octan-1-yi)methyl)-3-fluoro-N-(3-((4-fluorophenyl)amino)phenyl)bicyclo[1.1.1]pentane-1-carboxamide] showed a half-maximal effective concentration (EC50) of 0.179 µM.

The compound `CCOc1cccc(N(CC23CCC(c4nc(C5CC5)no4)(CC2)CC3)C(=O)[C@H]2C[C@](O)(C(F)(F)F)C2)c1` [Example 54, N-((4-(3-cyclopropyl-1,2,4-oxadiazol-5-yl)bicyclo[2.2.2]octan-1-yl)methyl)-N-(3-ethoxyphenyl)-3-hydroxy-3-(trifluoromethyl)cyclobutane-1-carboxamide] registered an EC50 of 0.938 µM.

`CC(C)Oc1cccc(N(CC23CCC(c4noc(C(C)(F)F)n4)(CC2)CC3)C(=O)[C@H]2C[C@](O)(C(F)(F)F)C2)c1` [Example 126, (1S,3S)-N-((4-(5-(1,1-difluoroethyl)-1,2,4-oxadiazol-3-yl)bicyclo[2..2.2]octan-1-yl)methyl)-3-hydroxy-N-(3-isopropoxyphenyl)-3-(trifluoromethyl)cyclobutane-1-carboxamide] gave an EC50 of 0.61 µM.

As for `CC(F)(F)c1nc(C23CCC(CN(c4cccc(S(=O)(=O)NC5CC5)c4)C(=O)[C@H]4C[C@](O)(C(F)(F)F)C4)(CC2)CC3)no1` [Example 19, (1S,3S)-N-(3-(N-cyclopropylsulfamoyl)phenyl)-N-((4-(5-(1,1-difluoroethyl)-1,2,4-oxadiazol-3-yl)bicyclo[2.2.2]octan-1-yl)methyl)-3-hydroxy-3-(trifluoromethyl)cyclobutane-1-carboxamide], the 50% effective concentration (EC50) worked out at 4 µM.

`CC(C)(F)c1nc(C23CCC(CN(C(=O)N[C@H]4CC[C@H](O)CC4)c4ccc(F)c(Br)c4)(CC2)CC3)no1` [Example 101, 1-(3-bromo-4-fluorophenyl)-1-((4-(5-(2-fluoropropan-2-yl)-1,2,4-oxadiazol-3-yl)bicyclo[2.2.2]octan-1-yl)methyl)-3-((1R,4R)-4-hydroxycyclohexyl)urea]: the EC50 amounted to 1.52 µM.

Take `CC(C)(C)c1nc(C23CCC(CN(C(=O)C45CC(F)(C4)C5)c4cccc(Nc5ncc(OC(F)F)cn5)c4)(CC2)CC3)no1` [Example 102, N-((4-(5-(tert-butyl)-1,2,4-oxadiazol-3-yl)bicyclo[2.2.2]octan-1-yl)methyl)-N-(3-((5-(difluoromethoxy)pyrimidin-2-yl)amino)phenyl)-3-fluorobicyclo[1.1.1]pentane-1-carboxamide]: the midpoint of the response, the EC50, lay at 0.183 µM.

Consider `CC(C)(C)c1noc(C23CCC(CN(C(=O)C4CCC(F)(F)CC4)c4cccc(C#N)c4)(CC2)CC3)n1` [Example 42, N-((4-(3-(tert-butyl)-1,2,4-oxadiazol-5-yl)bicyclo[2.2.2]octan-1-yl)methyl)-N-(3-cyanophenyl)-4,4-difluorocyclohexane-1-carboxamide], for which a half-maximal effect (EC50) was put at 1.25 µM.

With `O=C(N(CC12CCC(c3noc(C(F)(F)F)n3)(CC1)CC2)c1cccc(Br)c1)C12CC(F)(C1)C2` [Example 35, N-(3-bromophenyl)-3-fluoro-N-((4-(5-(trifluoromethyl)-1,2,4-oxadiazol-3-yl)bicyclo[2.2.2]octan-1-yl)methyl)bicyclo[1.1.1]pentane-1-carboxamide], the half-maximal effective concentration (EC50) was determined as 0.042 µM.

`CC(C)(F)c1nc(C23CCC(CN(C(=O)C45CC(C(C)(C)O)(C4)C5)c4cccc(Br)c4)(CC2)CC3)no1` [Example 134, N-(3-bromophenyl)-N-((4-(5-(2-fluoropropan-2-yl)-1,2,4-oxadiazol-3-yl)bicyclo[2.2.2]octan-1-yl)methyl)-3-(2-hydroxypropan-2-yl)bicyclo[1.1.1]pentane-1-carboxamide]: the EC50 stood at 0.434 µM.

For `O=C(N(CC12CCC(c3ccc(C(F)(F)F)cn3)(CC1)CC2)c1cccc(Nc2ncc(OC(F)F)cn2)c1)C12CC(F)(C1)C2` [Example 106, N-(3-((5-(difluoromethoxy)pyrimidin-2-yl)amino)phenyl)-3-fluoro-N-((4-(5-(trifluoromethyl)pyridin-2-yl)bicyclo[.2.2.2]octan-1-yl)methyl)bicyclo[1.1.1]pentane-1-carboxamide], the EC50 was 0.132 µM.

Take `CC(C)(C)c1noc(C23CCC(CN(C(=O)C4CCOCC4)c4cccc(P(C)(C)=O)c4)(CC2)CC3)n1` [Example 46, N-((4-(3-(tert-butyl)-1,2,4-oxadiazol-5-yl)bicyclo[2.2.2]octan-1-yl)methyl)-N-(3-(dimethylphosphoryl)phenyl)tetrahydro-2H-pyran-4-carboxamide]: the EC50 is 4 µM.

Consider `CNS(=O)(=O)c1cccc(N(CC23CCC(c4noc(C(C)(F)F)n4)(CC2)CC3)C(=O)C2CCC(F)(F)CC2)c1` [Example 23, N-((4-(5-(1,1-difluoroethyl)-1,2,4-oxadiazol-3-yl)bicyclo[2.2.2]octan-1-yl)methyl)-4,4-difluoro-N-(3-(N-methylsulfamoyl)phenyl)cyclohexane-1-carboxamide], for which a half-maximal response (EC50) required 4 µM.

The compound `CC(C)(C)c1nc(C23CCC(CN(C(=O)C45CC(F)(C4)C5)c4cccc(O)c4)(CC2)CC3)no1` [Example 110, N-((4-(5-(tert-butyl)-1,2,4-oxadiazol-3-yl)bicyclo[2.2.2]octan-1-yl)methyl)-3-fluoro-N-(3-hydroxyphenyl)bicyclo[1.1.1]pentane-1-carboxamide] had an EC50 of 0.065 µM.

The compound `COC(=O)CCc1cccc(N(CC23CCC(c4ccc(N(C)C)cc4)(CC2)CC3)C(=O)C2CCCCC2)c1` [Example 89, Methyl 3-(3-(N-((4-(4-(dimethylamino)phenyl)bicyclo[2.2.2]octan-1-yl)methyl)cyclohexanecarboxamido)phenyl)propanoate] gave a concentration for a half-maximal effect (EC50) of 1.12 µM.

`CC(C)(C)c1noc(C23CCC(CN(C(=O)C45CC(F)(C4)C5)c4ccc(F)c(C(C)(C)O)c4)(CC2)CC3)n1` [Example 128, N-((4-(3-(tert-butyl)-1,2,4-oxadiazol-5-yl)bicyclo[2.2.2]octan-1-yl)methyl)-3-fluoro-N-(4-fluoro-3-(2-hydroxypropan-2-yl)phenyl)bicyclo[1.1.1]pentane-1-carboxamide] yielded a 50% effective concentration (EC50) of 4 µM.

As to `CS(=O)(=O)c1cccc(N(CC23CCC(c4nc(C5CC5)no4)(CC2)CC3)C(=O)[C@H]2C[C@](O)(C(F)(F)F)C2)c1` [Example 90, (1S,3S)—N-((4-(3-cyclopropyl-1,2,4-oxadiazol-5-yl)bicyclo[2.2.2]octan-1-yl)methyl)-3-hydroxy-N-(3-(methylsulfonyl)phenyl)-3-(trifluoromethyl)cyclobutane-1-carboxamide], the 50% effective concentration (EC50) was 4 µM.

For the compound `N#Cc1cc(F)cc(N(CC23CCC(c4nc(C5CC5)no4)(CC2)CC3)C(=O)C2CC(F)(F)C2)c1` [Example 64, N-(3-cyano-5-fluorophenyl)-N-((4-(3-cyclopropyl-1,2,4-oxadiazol-5-yl)bicyclo[2.2.2]octan-1-yl)methyl)-3,3-difluorocyclobutane-1-carboxamide], the EC50 worked out at 0.528 µM.

Turning to `CC(F)(F)c1nc(C23CCC(CN(c4cccc(Cl)c4)C(=O)[C@H]4C[C@](O)(C(F)(F)F)C4)(CC2)CC3)no1` [Example 2, N-(3-chlorophenyl)-N-((4-(5-(1,1-difluoroethyl)-1,2,4-oxadiazol-3-yl)bicyclo[2.2.2]octan-1-yl)methyl)-3-hydroxy-3-(trifluoromethyl)cyclobutane-1-carboxamide], the response was half-maximal at 0.064 µM (EC50).

On to `CC(C)Oc1cccc(N(CC23CCC(c4noc(C(C)(F)F)n4)(CC2)CC3)C(=O)C23CC(F)(C2)C3)c1` [Example 127, N-((4-(5-(1,1-difluoroethyl)-1,2,4-oxadiazol-3-yl)bicyclo[2.2.2]octan-1-yl)methyl)-3-fluoro-N-(3-isopropoxyphenyl)bicyclo[1.1.1]pentane-1-carboxamide], for which the EC50 came out at 0.156 µM.

`CC(F)(F)c1nc(C23CCC(CN(C(=O)C45CC(F)(C4)C5)c4cccc(Cl)c4)(CC2)CC3)no1` [Example 1, N-(3-chlorophenyl)-N-((4-(5-(1,1-difluoroethyl)-1,2,4-oxadiazol-3-yl)bicyclo[2.2.2]octan-1-yl)methyl)-3-fluorobicyclo[1.1.1]pentane-1-carboxamide] displayed an EC50 of 0.011 µM.

The record behind these values is patent US12319676B2, “Substituted amide compounds useful as farnesoid X receptor modulators” (BRISTOL-MYERS SQUIBB COMPANY, priority 2019, dated 2025).
